Tests used:
Tyrosinase = assay: Whitening effect: tyrosinase activity inhibition test; assay type: biochemical; settings: compound concentration 500 μg/mL; substrate D, L-DOPA; room temperature for a week
Protocol: With regard to a 50 wt/% aqueous solution of each of the compounds C46, C49 and C101, a whitening effect was confirmed via a tyrosinase activity inhibition test. Tyrosinase (by SIGMA-ALDRICH) was dissolved with a 67 mM phosphate buffer solution (pH 6.8) so that the concentration of the tyrosinase would be 0.2 mg/mL, thereby obtaining an enzyme solution. Further, a substrate solution was prepared by dissolving 3 mg of D, L-DOPA (by Tokyo Chemical Industry Co., Ltd.) into 10 mL of the 67 mM phosphate buffer solution. […] Next, 80 μL of the substrate solution was quickly added to the preincubated solution, and an absorbance (A1) at 475 nm immediately after the addition of the substrate solution was then measured. Further, after leaving this solution to stand still at room temperature for a week, an absorbance (A2) at 475 nm was again measured.
In addition, as a control, there were prepared samples containing an ultrapure water instead of the compounds of the working examples; and in a similar manner as above, there were measured an absorbance (A3) at 475 nm immediately after the addition of the substrate, and an absorbance (A4) at 475 nm after leaving the solution at room temperature for a week.
An inhibition rate was calculated with the following formula.

[1] = Water confinement property test (barrier property); assay type: physicochemical; settings: 80 wt % aqueous solution, 0.01 mL/cm^2 on filter paper, 40° C. and 25% RH, 24 hours
Protocol: Next, 20.0 g of an ion-exchange water was put into a 40 mL pierce vial bottle (by AS ONE Corporation.), followed by removing an inner lid (rubber plug) of the pierce vial bottle, placing on the pierce vial bottle the filter paper to which each sample had been applied, and then plugging the bottle with an outer lid.
Further, Wm1, Wm2, Sm1 and Sm2 in the formula below respectively represent the following numerical values.
Wm1: Weight of ion-exchange water in vial before storage (using filter paper to which only ion-exchange water had been applied)
Wm2: Weight of ion-exchange water in vial after 24 hours (using filter paper to which only ion-exchange water had been applied)
Sm1: Weight of ion-exchange water in vial before storage (using filter paper to which sample had been applied)
Sm2: Weight of ion-exchange water in vial after 24 hours (using filter paper to which sample had been applied)

[2] = Water retention property test 1; assay type: physicochemical; settings: 80 wt % aqueous solution
Protocol: A moisture rate after 24 hours was again measured (post-test moisture rate: B), followed by using the formula below to calculate a rate of reduction in moisture so as to evaluate the water retention property. • Pre-test moisture rate: A (%) • Post-test moisture rate: B (%)

[3] = Stability of ascorbic acid-based compound (coloration); assay type: physicochemical; parameters: key to Appearance (Visual evaluation) Immediately after preparatiom / Appearance (Visual evaluation) After 7 days 50° C. / Appearance (Visual evaluation) After 7 days Room temperature: ⊚: Colorless and transparent; ∘: Light yellow; Δ: Yellow; x: Brown to black; settings: 33 wt % aqueous solution
Protocol: With regard to a 33 wt/% aqueous solution of each of the compounds C46, C49 and C98 to C100 and water, a stability in an aqueous solution condition was visually evaluated. An evaluation method was such that there was prepared a 33 wt % aqueous solution of each of the compounds C46, C49 and C98 to C100, the aqueous solution was then left to stand still at room temperature or in a thermostatic bath of 50° C. for seven days; coloration before and after the still standing was visually confirmed. The evaluation criteria were as follows. • ⊚: Colorless and transparent • ∘: Light yellow • Δ: Yellow • x: Brown to black

With `NC(CO)(CO)CO.O=C1OC(C(O)CO)C(O)=C1O` (stereo not drawn) [Compound C49] the “Tyrosinase activity inhibition rate” value (Tyrosinase) was 95.8%, the “Water evaporation inhibition rate” value [1] was 32.19% and the “Water retention property test 1 Pre-test moisture rate” value [2] was 20.0%. The “Water retention property test 1 Post-test moisture rate” value ([2]; 24 hours at 40° C. and 25% RH) was 19.4%, the “Water retention property test 1 Rate of reduction in moisture” value ([2]; 24 hours at 40° C. and 25% RH) was 3.0% and the “Appearance (Visual evaluation) After 7 days 50° C.” value [3] was “Δ”. The “Appearance (Visual evaluation) After 7 days Room temperature” value [3] was “○”, the “Appearance (Visual evaluation) Immediately after preparatiom” value [3] was “⊚” and the “Coloration of aqueous solution (stability)” value ([3]; room temperature or 50° C., seven days) was “significant improvements in coloration”.

Source: patent publication US20250090437A1, “COSMETIC COMPOUNDING AGENT, COSMETIC AND PRODUCTION METHOD THEREOF” (MIYOSHI OIL & FAT CO., LTD., priority 2019, published 2025)
